{"source": "ChEMBL document CHEMBL4431301", "about": "“The Medicinal Chemistry of Dengue Virus” (J Med Chem, 2016)", "key": {"dengue virus type 2 [1]": {"system": "dengue virus type 2", "assay": "Antiviral activity against Dengue virus 2 NGC infected in african green monkey Vero cells assessed as reduction in viral titer preincubated for 2 hrs measured after 4 days by qRT-PCR", "type": "functional, organism-based"}, "West Nile virus [2]": {"system": "West Nile virus", "assay": "Antiviral activity against West Nile virus NY99 infected in african green monkey Vero cells assessed as reduction in viral titer preincubated for 2 hrs measured after 4 days by qRT-PCR", "type": "functional, organism-based"}, "[3]": {"assay": "Inhibition of GST-fused Imp-alpha/beta1 (unknown origin) binding to Dengue virus NS5 after 2 hrs by alpha screen assay", "parameters": "species or system Homo sapiens"}, "dengue virus type 1 [4]": {"system": "dengue virus type 1", "assay": "Antiviral activity against Dengue virus 1 by CFI assay", "type": "functional, organism-based"}, "dengue virus type 2 [5]": {"system": "dengue virus type 2", "assay": "Antiviral activity against Dengue virus 2 by CFI assay", "type": "functional, organism-based"}, "dengue virus type 3 [6]": {"system": "dengue virus type 3", "assay": "Antiviral activity against Dengue virus 3 by CFI assay", "type": "functional, organism-based"}, "dengue virus type 4 [7]": {"system": "dengue virus type 4", "assay": "Antiviral activity against Dengue virus 4 by CFI assay", "type": "functional, organism-based"}, "dengue virus type 2 [8]": {"system": "dengue virus type 2", "assay": "Antiviral activity against Dengue virus 2 NGC preincubated for 30 mins with virus followed by cell infection for 2 hrs measured after 5 days by immunostaining based plaque reduction assay", "type": "functional, organism-based"}, "West Nile virus [9]": {"system": "West Nile virus", "assay": "Antiviral activity against West Nile virus Kunjin preincubated for 30 mins with virus followed by cell infection for 2 hrs measured after 3 days by crystal violet staining based plaque reduction assay", "type": "functional, organism-based"}, "Yellow fever virus": {"system": "Yellow fever virus", "assay": "Antiviral activity against Yellow fever virus 17D Vaccine preincubated for 30 mins with virus followed by cell infection for 2 hrs measured after 6 days by crystal violet staining based plaque reduction assay", "type": "functional, organism-based"}, "[10]": {"assay": "Selectivity index, ratio of CC50 for african green monkey Vero cells to EC50 for Dengue virus 2 NGC", "type": "toxicity", "details": "read-out: Ratio CC50/EC50"}, "dengue virus type 2 [11]": {"system": "dengue virus type 2", "assay": "Antiviral activity against Dengue virus 2 infected in african green monkey Vero E6 cells assessed as inhibition of viral yield after 72 hrs by flow cytometry", "type": "functional, organism-based", "details": "Vero C1008, 72 h"}, "dengue virus type 1 [12]": {"system": "dengue virus type 1", "assay": "Antiviral activity against Dengue virus 1 infected in african green monkey Vero E6 cells assessed as inhibition of viral yield after 72 hrs by flow cytometry", "type": "functional, organism-based", "details": "Vero C1008, 72 h"}, "dengue virus type 3 [13]": {"system": "dengue virus type 3", "assay": "Antiviral activity against Dengue virus 3 infected in african green monkey Vero E6 cells assessed as inhibition of viral yield after 72 hrs by flow cytometry", "type": "functional, organism-based", "details": "Vero C1008, 72 h"}, "dengue virus type 4 [14]": {"system": "dengue virus type 4", "assay": "Antiviral activity against Dengue virus 4 infected in african green monkey Vero E6 cells assessed as inhibition of viral yield after 72 hrs by flow cytometry", "type": "functional, organism-based", "details": "Vero C1008, 72 h"}, "[15]": {"assay": "Drug uptake in C57BL/6 mouse spleen infected with Ebola virus at 3 mg/kg, iv administered 2 hrs prior to viral infection measured on day 2 and 5 post viral infection by mass spectrometry", "type": "ADME, organism-based", "details": "read-out: Drug uptake"}, "[16]": {"assay": "Drug uptake in C57BL/6 mouse kidney infected with Ebola virus at 3 mg/kg, iv administered 2 hrs prior to viral infection measured on day 2 and 5 post viral infection by mass spectrometry", "type": "ADME, organism-based", "details": "read-out: Drug uptake"}, "dengue virus type 2 [17]": {"system": "dengue virus type 2", "assay": "Antiviral activity against Dengue virus 2 NGC infected in african green monkey Vero cells assessed as reduction in viral titer preincubated for 1 hr followed by viral infection measured after 5 days by plaque assay", "type": "functional, organism-based"}, "[18]": {"assay": "Cytotoxicity against african green monkey Vero cells", "type": "cell-based", "details": "chlorocebus sabaeus"}, "[19]": {"assay": "Oral bioavailability in Balb/c mouse at 200 mg/kg after 5 mins to 48 hrs by LC-MS/MS analysis", "type": "ADME, organism-based", "details": "in vivo"}, "dengue virus type 2 [20]": {"system": "dengue virus type 2", "assay": "Antiviral activity against Dengue virus 2 infected in BHK21 cells assessed after 3 to 5 days by crystal violet staining based plaque assay", "type": "functional, organism-based", "details": "BHK-21"}, "dengue virus type 2 [21]": {"system": "dengue virus type 2", "assay": "Antiviral activity against Dengue virus 2 infected in BHK21 cells assessed as reduction in virus replication after 24 hrs by renilla luciferase reporter gene assay", "type": "functional, organism-based", "details": "BHK-21, 24 h"}, "[22]": {"assay": "Cytotoxicity against BHK21 cells after 24 hrs by CellTiter-Glo luminescent assay", "type": "cell-based, Mesocricetus auratus, BHK-21", "details": "hamster"}, "dengue virus type 1 [23]": {"system": "dengue virus type 1", "assay": "Antiviral activity against Dengue virus 1 Western Pacific 74 infected in african green monkey Vero cells assessed as reduction in viral replication after 48 hrs by luciferase reporter gene assay", "type": "functional, organism-based", "details": "Western Pacific 74, Vero"}, "West Nile virus [24]": {"system": "West Nile virus", "assay": "Antiviral activity against West Nile virus 3356 infected in african green monkey Vero cells assessed as reduction in viral titer after 42 hrs by plaque assay", "type": "functional, organism-based", "details": "West Nile virus, 3356, Vero"}, "Genome polyprotein [25]": {"biological_target": "T1, Genome polyprotein (dengue virus type 2, UniProt P29990)", "T1 sequence (P29990 1346-1475 limits assumed)": "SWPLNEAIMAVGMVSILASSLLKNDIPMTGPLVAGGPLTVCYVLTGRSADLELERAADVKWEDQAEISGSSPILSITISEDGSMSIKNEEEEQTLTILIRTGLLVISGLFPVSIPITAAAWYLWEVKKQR", "T1 sequence (P29990 1476-2093 limits assumed)": "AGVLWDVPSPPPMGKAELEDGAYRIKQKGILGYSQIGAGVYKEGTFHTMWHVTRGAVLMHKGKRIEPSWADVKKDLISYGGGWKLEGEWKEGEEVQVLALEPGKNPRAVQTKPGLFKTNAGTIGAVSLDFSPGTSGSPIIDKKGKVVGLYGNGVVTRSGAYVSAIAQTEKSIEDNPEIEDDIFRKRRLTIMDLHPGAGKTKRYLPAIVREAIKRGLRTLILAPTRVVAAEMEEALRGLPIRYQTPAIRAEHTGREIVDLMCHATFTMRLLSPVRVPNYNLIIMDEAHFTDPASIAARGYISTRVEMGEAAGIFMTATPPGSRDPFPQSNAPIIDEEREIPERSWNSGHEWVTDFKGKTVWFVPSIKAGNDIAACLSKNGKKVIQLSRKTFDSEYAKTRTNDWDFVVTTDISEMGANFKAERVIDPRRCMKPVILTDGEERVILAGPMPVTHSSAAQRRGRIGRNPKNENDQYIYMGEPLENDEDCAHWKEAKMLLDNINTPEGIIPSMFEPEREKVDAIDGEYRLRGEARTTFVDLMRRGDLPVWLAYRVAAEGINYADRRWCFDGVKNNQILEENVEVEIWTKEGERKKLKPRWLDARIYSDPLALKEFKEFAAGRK", "assay": "Mixed noncompetitive inhibition of the Dengue virus 2 NS2B-NS3 protease expressed in Escherichia coli using Boc-GRR-AMC as substrate assessed as enzyme-inhibitor complex after 30 mins by spectrofluorometry"}, "Genome polyprotein [26]": {"biological_target": "T1, Genome polyprotein", "assay": "Mixed noncompetitive inhibition of the Dengue virus 2 NS2B-NS3 protease expressed in Escherichia coli using Boc-GRR-AMC as substrate assessed as enzyme-substrate-inhibitor complex after 30 mins by Michaelis-Menten plot analysis"}, "dengue virus type 2 [27]": {"system": "dengue virus type 2", "assay": "Antiviral activity against Dengue virus 2 NGC infected in african green monkey Vero cells assessed as reduction in viral titer at 6 uM after 44 hrs relative to control", "type": "functional"}, "dengue virus type 2 [28]": {"system": "dengue virus type 2", "assay": "Antiviral activity against Dengue virus 2 NGC infected in african green monkey Vero cells assessed as reduction in viral titer at 17 uM after 44 hrs relative to control", "type": "functional"}, "West Nile virus [29]": {"system": "West Nile virus", "assay": "Antiviral activity against West Nile virus infected in african green monkey Vero cells assessed as reduction in viral titer after 42 hrs by plaque assay", "type": "functional"}, "dengue virus type 2 [30]": {"system": "dengue virus type 2", "assay": "Antiviral activity against Dengue virus 2 NGC infected in african green monkey Vero cells assessed as reduction in viral titer after 42 hrs by plaque assay", "type": "functional"}, "[31]": {"assay": "Inhibition of N-terminal GST tagged recombinant Dengue virus 3 N-7 methyltransferase expressed in Escherichia coli BL21 cells by scintillation counting analysis", "parameters": "species or system dengue virus type 3"}, "Nonstructural protein 5": {"biological_target": "Nonstructural protein 5 (Dengue virus, UniProt V5TFZ2)", "sequence (V5TFZ2 whole entry)": "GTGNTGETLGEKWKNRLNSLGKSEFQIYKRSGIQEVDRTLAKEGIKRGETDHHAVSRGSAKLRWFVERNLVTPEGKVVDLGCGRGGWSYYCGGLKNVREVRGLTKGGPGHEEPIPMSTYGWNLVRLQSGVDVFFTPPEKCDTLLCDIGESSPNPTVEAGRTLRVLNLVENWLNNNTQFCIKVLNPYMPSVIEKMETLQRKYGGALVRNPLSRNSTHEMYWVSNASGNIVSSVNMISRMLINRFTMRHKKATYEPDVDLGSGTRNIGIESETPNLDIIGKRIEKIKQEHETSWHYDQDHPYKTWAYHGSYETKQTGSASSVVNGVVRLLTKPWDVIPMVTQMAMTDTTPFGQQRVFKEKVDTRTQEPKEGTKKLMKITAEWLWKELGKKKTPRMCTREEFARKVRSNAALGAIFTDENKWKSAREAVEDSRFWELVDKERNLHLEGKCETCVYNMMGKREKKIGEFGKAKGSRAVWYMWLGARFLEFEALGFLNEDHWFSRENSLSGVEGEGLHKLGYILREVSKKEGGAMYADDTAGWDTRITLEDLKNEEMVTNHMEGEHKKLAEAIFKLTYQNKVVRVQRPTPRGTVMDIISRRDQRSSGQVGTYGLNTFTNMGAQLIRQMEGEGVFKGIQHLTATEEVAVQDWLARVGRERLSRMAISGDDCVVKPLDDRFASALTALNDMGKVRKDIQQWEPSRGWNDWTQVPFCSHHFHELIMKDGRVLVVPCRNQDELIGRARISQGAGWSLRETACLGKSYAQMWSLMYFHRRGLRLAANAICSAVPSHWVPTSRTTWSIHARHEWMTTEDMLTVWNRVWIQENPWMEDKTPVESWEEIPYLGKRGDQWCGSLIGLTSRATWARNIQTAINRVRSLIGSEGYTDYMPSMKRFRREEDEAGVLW", "assay": "Inhibition of N-terminal GST tagged recombinant Dengue virus 3 2'-O methyltransferase expressed in Escherichia coli BL21 cells by scintillation counting analysis", "parameters": "species or system dengue virus type 3"}}, "data": [{"molecule": "IVERMECTIN", "values": [{"measurement": "EC50", "setting": "dengue virus type 2 [1]", "value": 700, "unit": "nM"}, {"measurement": "EC50", "setting": "West Nile virus [2]", "value": 4000, "unit": "nM"}, {"measurement": "IC50", "setting": "[3]", "value": 17000, "unit": "nM"}, {"measurement": "EC50", "setting": "dengue virus type 1 [4]", "value": "1200 to 1600", "unit": "nM"}, {"measurement": "EC50", "setting": "dengue virus type 2 [5]", "value": "1200 to 1600", "unit": "nM"}, {"measurement": "EC50", "setting": "dengue virus type 3 [6]", "value": "1200 to 1600", "unit": "nM"}, {"measurement": "EC50", "setting": "dengue virus type 4 [7]", "value": "1200 to 1600", "unit": "nM"}]}, {"molecule": "C/C(=N\\Nc1ccccc1)c1sc(-c2cc(Cl)nc(Oc3ccc(Cl)cc3)c2)nc1C", "values": [{"measurement": "IC50", "setting": "dengue virus type 2 [8]", "value": 1200, "unit": "nM"}, {"measurement": "IC50", "setting": "West Nile virus [9]", "value": 3800, "unit": "nM"}, {"measurement": "IC50", "setting": "Yellow fever virus", "value": 1600, "unit": "nM"}, {"measurement": "selectivity ratio", "setting": "[10]", "value": "> 83"}]}, {"molecule": "Cc1cc(NCCCN(C)C)c2ccc3c(ccc4c(NCCCN(C)C)cc(C)nc43)c2n1", "values": [{"measurement": "EC50", "setting": "dengue virus type 2 [11]", "value": "400 to 900", "unit": "nM"}, {"measurement": "EC50", "setting": "dengue virus type 1 [12]", "value": "400 to 900", "unit": "nM"}, {"measurement": "EC50", "setting": "dengue virus type 3 [13]", "value": "400 to 900", "unit": "nM"}, {"measurement": "EC50", "setting": "dengue virus type 4 [14]", "value": "400 to 900", "unit": "nM"}, {"measurement": "concentration at 2 h", "setting": "[15]", "value": 19500, "unit": "ng/g"}, {"measurement": "concentration at 2 h", "setting": "[16]", "value": 43100, "unit": "ng/g"}]}, {"molecule": "COCCCCCCCCCN1C[C@H](O)[C@@H](O)[C@H](O)[C@H]1CO", "values": [{"measurement": "EC50", "setting": "dengue virus type 2 [17]", "value": 17000, "unit": "nM"}, {"measurement": "CC50", "setting": "[18]", "value": "> 500000", "unit": "nM"}, {"measurement": "bioavailability", "setting": "[19]", "value": 84, "unit": "%"}]}, {"molecule": "CCN(CC)Cc1cc(Nc2ccnc3cc(Cl)ccc23)ccc1O", "note": "[AMODIAQUINE]", "values": [{"measurement": "EC50", "setting": "dengue virus type 2 [20]", "value": 1080, "unit": "nM"}, {"measurement": "EC50", "setting": "dengue virus type 2 [21]", "value": 7410, "unit": "nM"}, {"measurement": "CC50 at 24 h", "setting": "[22]", "value": 52100, "unit": "nM"}]}, {"molecule": "O=C(c1ccccc1)N1N=C(c2cccs2)CC1c1ccc(Cl)cc1", "note": "(stereo not drawn)", "values": [{"measurement": "EC50", "setting": "dengue virus type 1 [23]", "value": 17000, "unit": "nM"}, {"measurement": "EC50", "setting": "West Nile virus [24]", "value": 28000, "unit": "nM"}]}, {"molecule": "O=C1Cc2ccc(F)cc2C[C@@H]1C1=Cc2ccc(F)cc2CC1", "values": [{"measurement": "Ki", "setting": "Genome polyprotein [25]", "value": 7000, "unit": "nM"}, {"measurement": "Ki", "setting": "Genome polyprotein [26]", "value": 15000, "unit": "nM"}]}, {"molecule": "O=C(Nc1cccc(Cn2cc(-c3cccc(S(=O)(=O)Nc4ccccc4C(=O)O)c3)cn2)c1)c1ccc(C(=O)c2ccccc2)cc1", "values": [{"measurement": "fold change (FC)", "setting": "dengue virus type 2 [27]", "value": 3.4}, {"measurement": "fold change (FC)", "setting": "dengue virus type 2 [28]", "value": 4.5}]}, {"molecule": "COC(=O)c1c(-c2c(Cl)cccc2Cl)noc1-c1cnn(-c2cccc(Cl)c2)c1C(F)(F)F", "values": [{"measurement": "EC90", "setting": "West Nile virus [29]", "value": 0.31, "unit": "nM"}, {"measurement": "EC90", "setting": "dengue virus type 2 [30]", "value": 5.2, "unit": "nM"}]}, {"molecule": "N[C@@H](CCSC[C@H]1O[C@@H](n2cnc3c(NCc4cccc(Cl)c4)ncnc32)[C@H](O)[C@@H]1O)C(=O)O", "values": [{"measurement": "Ki", "setting": "[31]", "value": 820, "unit": "nM"}, {"measurement": "Ki", "setting": "Nonstructural protein 5", "value": 170, "unit": "nM"}]}]}
